# System: C57/BL6 mice
# Assay: Contextual fear conditioning in the presence of thiazoline-related fear odor (inhibition of fear memory formation), freezing behavior
# Assay type: in vivo
# Details: filter paper impregnated with 100 μl or 10 μl of 2MT during fear conditioning; freezing measured for 10 min on day 3 with Eugenol; compared to group that learned with no odor; FIG. 1
# Protocol: • Day 0: About 2-month-old C57/BL6 mice were placed in an electric shock chamber, and 2-second electric shock (0.6 mA) was given 6 times at 2-minute intervals for 12 min for contextual fear conditioning. Conditioning was performed under 4 conditions of no odor condition (control; n=6) (group 1) and an electric shock chamber with filter paper impregnated with 100 μl of 2-methyl-2-thiazoline (2MT) condition (2MT; n=6) (group 2), or no odor condition (control; n=6) (group 3) and an electric shock chamber with filter paper impregnated with 10 μl of 2-methyl-2-thiazoline (2MT) condition (2MT; n=6) (group 4). • Day 1: Mice were placed in the electric shock chamber (no odor) used for learning on the previous day, and freezing behavior was measured for 10 min using dedicated software (Freeze frame 2; ActiMetrics). • Day 3: The mice of group 1 and group 2 were placed in an electric shock chamber with filter paper impregnated with 100 μl of Eugenol, and freezing behavior was measured for 10 min. The mice in group 3 and group 4 were placed in an electric shock chamber with filter paper impregnated with 10 μl of Eugenol, and freezing behavior was measured for 10 min.
# A student's t-test was also performed between the group with no odor and the group with 2MT (**p<0.01, ***p<0.001).
row,Compound,freezing behavior in the context with odor (eugenol odor context; day 3)
1,CC1=NCCS1 [2-methyl-2-thiazoline],marked decrease

# Same assay, conditions: filter paper impregnated with 100 μl or 10 μl of 2MT in electric shock chamber during fear conditioning; freezing measured for 10 min on day 1; compared to no odor group; FIG. 1
row,Compound,freezing behavior in the no odor context (day 1)
1,CC1=NCCS1 [2-methyl-2-thiazoline],remarkably decreased

# System: C57/BL6 mice
# Assay: Contextual fear conditioning 30 min after intraperitoneal administration (inhibition of fear memory formation), freezing behavior
# Assay type: in vivo
# Details: intraperitoneal 200 μl of 1 v/v % solution in saline, 30 min before conditioning; freezing for 10 min on day 1, no odor; compared with saline-administered group (=100%); n=6; FIG. 2-12
# Protocol: • Day 0: To about 2 month-old C57/BL6 mice was intraperitoneally administered 200 μl of saline, or 1 v/v % 2-methyl-2-thiazoline solution (dissolved in saline), or 1 v/v % 5-methylthiazole solution (dissolved in saline), or 1 v/v % 4-ethyl-2-methyl-2-thiazoline solution (dissolved in saline), or 1 v/v % 2,4,5-trimethyl-3-thiazoline solution (dissolved in saline), or 1 v/v % thiomorpholine solution (dissolved in saline), or 1 v/v % allyl isothiocyanate (AITC) solution (dissolved in saline), or 1 v/v % 2,3-diethylpyrazine solution (dissolved in saline), or 1 v/v % 2,6-lutidine solution (dissolved in saline) (each condition n=6). Thirty minutes after the administration, the mice were placed in an electric shock chamber, and 2-second electric shock (0.6 mA) was given 6 times at 2-minute intervals for 12 min for contextual fear conditioning. • Day 1: Mice were placed in the electric shock chamber (no odor) used for learning on the previous day, and freezing behavior was measured for 10 min using dedicated software (Freeze frame 2).
# In addition, a student's t-test was performed between the saline-administered group and each compound-administered group (*p<0.05, ***p<0.001).
# (§1) • Day 0: To about 2 month-old C57/BL6 mice was intraperitoneally administered 200 μl of saline or 1 v/v % 2-(allylthio)-2-thiazoline solution (dissolved in saline) (each condition n=6). Thirty minutes after the administration, the mice were placed in an electric shock chamber, and 2-second electric shock (0.6 mA) was given 6 times at 2-minute intervals for 12 min for contextual fear conditioning. • Day 1: Mice were placed in the electric shock chamber (no odor) used for learning on the previous day, and freezing behavior was measured for 10 min using dedicated software (Freeze frame 2).
# A student's t-test was performed between the saline-administered group and the 2-(allylthio)-2-thiazoline-administered group (*p<0.05).
# as §1, with “4-tert-butyl-2-methylthiazole” for “2-(allylthio)-2-thiazoline”
# as §1, with “2-ethoxythiazole” for “2-(allylthio)-2-thiazoline”
# as §1, with “2-methylbenzothiazole” for “2-(allylthio)-2-thiazoline”
# • Day 0: To about 2 month-old 057/BL6 mice was intraperitoneally administered 200 μl of saline or 1 v/v % 2-mercaptothiazole solution (dissolved in saline) (each condition n=6). […]
row,Compound,frequency of freezing behavior during the test (day 1)
1,Cc1nc(C(C)(C)C)cs1 [4-tert-butyl-2-methylthiazole],significant decrease
2,Cc1nc2ccccc2s1 [2-methylbenzothiazole],significant decrease
3,"C=CCN=C=S [AITC, allyl isothiocyanate]",significant decrease
4,CC1=NCCS1 [2-methyl-2-thiazoline],significant decrease
5,C=C(C)CN=C=S [methallyl isothiocyanate],significant decrease
6,Sc1nccs1 [2-mercaptothiazole],significant decrease
7,"CCc1nccnc1CC [2,3-diethylpyrazine]",significant decrease
8,C1CSCCN1 [thiomorpholine],significant decrease
9,Cc1nccs1 [2-methylthiazole],significant decrease
10,CC(=O)c1ccc[nH]1 [2-acetylpyrrole],significant decrease
11,Cc1cncs1 [5-methylthiazole],significant decrease
12,CCC1CSC(C)=N1 (centres unmarked) [4-ethyl-2-methyl-2-thiazoline],significant decrease
13,"Cc1cccc(C)n1 [2,6-lutidine]",significant decrease
14,NC1=NCCS1 [2-amino-2-thiazoline],significant decrease
15,"CC1=NC(C)SC1C (centres unmarked) [2,4,5-trimethyl-3-thiazoline]",significant decrease
16,C=CCSC1=NCCS1 [2-(allylthio)-2-thiazoline],significant decrease
17,CC1CNCCS1 (centres unmarked) [2-methylthiomorpholine],significant decrease
18,CCOc1nccs1 [2-ethoxythiazole],significant decrease

# Reference: US20230293542A1, “SENSORY STIMULATING PSYCHOTROPIC DRUG” (KANSAI MEDICAL UNIVERSITY, priority 2020, published 2023)
